This assay relates to HIVIIIb in CCRM-CEM cells. Kind of assay: Anti-viral potency in CCRM-CEM cells acutely infected with HIVIIIb (method of Meek et al.), extracellular p24 antigen. It is filed as cell-based, HIV-1. The conditions noted are these: Table VIII, read-out: IC90 Range. The source says:
As discussed above, the novel compounds of the present invention are excellent ligands for aspartyl proteases, particularly HIV-1 and HIV-2 proteases. Accordingly, these compounds are capable of targeting and inhibiting late stage events in HIV replication, i.e., the processing of the viral polyproteins by HIV encoded proteases. […] Because aspartyl protease is essential for the production of mature virions, inhibition of that processing effectively blocks the spread of virus by inhibiting the production of infectious virions, particularly from chronically infected cells. […] Other anti-viral assays have confirmed the potency of these compounds.
Compounds of formula I were tested for their antiviral potency in several virological assays. In the first assay, the compounds were added as a solution in dimethylsulfoxide (DMSO) to a test cell culture of CCRM-CEM cells, a strain of CD4^+ human T-cell lymphoma cells, previously acutely infected with HIVIIIb using standard protocols (see Meek, T. D. et al., "Inhibition of HIV-1 protease in infected T-lymphocytes by synthetic peptide analogues", Nature, 343, p. 90 (1990). Preferred compounds are those which are able to inhibit 90% of viral infectivity at a concentration of 1 μM or less. More preferred compounds are those which are able to inhibit 90% of viral infectivity at a concentration of 100 nM or less.
The effect of the compounds on inhibiting the replication of the virus was measured by determining the HIV extracellular p24 antigen concentration using a commercial enzyme immunoassay (obtained from Coulter Corporation, Hialeah, Fla.).

The mark [1] stands for this setting: Human immunodeficiency virus 1, HIV replication.

Counter-ions that a name gives are not always drawn. Like-named read-outs stand apart in the source and are kept apart here. Where only a bound is given, the exact number is not on record here.

On to `CC(C)CN(C[C@@H](O)[C@H](Cc1ccccc1)NC(=O)[C@H](CC(N)=O)NC(=O)c1ccc2ccccc2n1)S(=O)(=O)c1cc(S(=O)(=O)c2ccccc2)cs1` [Compound 13, (S)-N-1-(3-((4-Benzenesulfonyl-thiophene-2-sulfonyl)-isobutyl-amino)-(1S,2 syn)-1-benzyl-2-hydroxy-propyl)-2-((quinoline-2-carbonyl)-amino)-succinamide], for which the IC90 under setting [1] is less than 0.1 µM. For the molecule `O=C(N[C@@H](Cc1ccccc1)[C@H](O)CN(CC1CCCC1)S(=O)(=O)c1ccc(F)cc1)OCc1cccnc1` [Compound 111], the IC90 under setting [1] was in the range of 1 to 10 µM. With `CC(C)CN(C[C@@H](O)[C@H](Cc1ccccc1)NC(=O)O[C@H]1CCOC1)S(=O)(=O)c1cccnc1` [Compound 144, Pyridine-3-sulfonic acid ((2 syn,3S)-2-hydroxy-4-phenyl-3-((S)-tetrahydrofuran-3-yloxycarbonylamino)-butyl)-isobutyl-amide, trifluoroacetic acid salt], the IC90 under setting [1] lay in the range of 0.101 to 1 µM. In the case of `C=CCOC(=O)N[C@@H](Cc1ccccc1)[C@H](O)CN(CC1CCCC1)S(=O)(=O)c1ccc(Cl)cc1` [Compound 117], the concentration for an effect of 90% (IC90) under setting [1] is 1 to 10 µM.

As for `CC(=O)Nc1cccc(S(=O)(=O)N(CC(C)C)C[C@@H](O)[C@H](Cc2ccccc2)NC(=O)[C@H](CC(N)=O)NC(=O)c2ccc3ccccc3n2)c1` [Compound 19, (S)-N-1-(3-((3-Acetylamino-benzenesulfonyl)-isobutyl-amino)-(1S,2 syn)-1-benzyl-2-hydroxy-propyl)-2-((quinoline-2-carbonyl)-amino)-succinamide], the IC90 under setting [1] fell in the range of 0.101 to 1 µM. As to `Cc1noc(C)c1S(=O)(=O)N(Cc1ccccc1)C[C@@H](O)[C@H](Cc1ccccc1)NC(=O)[C@H](CC(N)=O)NC(=O)c1ccc2ccccc2n1` [Compound 3], the 90% effect concentration (IC90) under setting [1] was 1 to 10 µM. Still for that read-out and setting: then `Nc1ccc(S(=O)(=O)N(CC2CCCC2)C[C@@H](O)[C@H](Cc2ccccc2)NC(=O)O[C@H]2CCOC2)cc1` [Compound 171, 4-Amino-N-cyclopentylmethyl-N-((2 syn,3S)-2-hydroxy-4-phenyl-3-((S)-tetrahydrofuran-3-yloxycarbonylamino)-butyl)-banzenesulfonamide], with less than 0.1 µM. Turning to `CC(C)CN(C[C@@H](O)[C@H](Cc1ccccc1)NC(=O)O[C@H]1CCOC1)S(=O)(=O)c1ccc(Cl)c(Cl)c1` [Compound 37, 3,4-Dichloro-N-((2 syn,3S)-2-hydroxy-4-phenyl-3-((S)-tetrahydrofuran-3-yloxycarbonylamino)-butyl)-N-isobutyl-benzenesulfonamide], under setting [1], the concentration for an effect of 90% (IC90) is 0.101 to 1 µM.

`CC(C)CN(C[C@@H](O)[C@H](Cc1ccccc1)NC(=O)OC(C)(C)C)S(=O)(=O)c1ccc(F)cc1` [Compound 32]: the IC90 under setting [1] fell in the range of 1 to 10 µM. On the same count and under the same terms, for `C=CCOC(=O)N[C@@H](Cc1ccccc1)[C@H](O)CN(CC1CCCC1)S(=O)(=O)c1ccc(OC)cc1` [Compound 141, N-((3-allyloxycarbonylamino)-(2 syn,3S)-2-hydroxy-4-phenyl-butyl)-N-cyclopentylmethyl-4-methoxy-benzenesulfonamide] the value was 0.101 to 1 µM. As to “(S)-N-1-(3-((3-Acetylamino-4-fluoro-benzenesulfonyl)-benzyl-amino)-(1S,2 syn)-1-benzyl-2-hydroxy-propyl)-2-((quinoline-2-carbonyl)-amino)-succinamide and (S)-N-1-(3-((4-Acetylamino-3-fluoro-benzenesulfonyl)-benzyl-amino)-(1S,2 syn)-1-benzyl-2-hydroxy-propyl)-2-((quinoline-2-carbonyl)-amino)-succinamide [Compound 2]”, where the note is “HIV replication”, the IC90 is 0.101 to 1 µM. For the molecule `CC(C)CN(C[C@@H](O)[C@H](Cc1ccccc1)NC(=O)OCC1CCOC1)S(=O)(=O)c1ccc(Cl)c(Cl)c1` (some centres unmarked) [Compound 85], the IC90 under setting [1] lay in the range of 1 to 10 µM. The same measure, in the same setting: then `CC(=O)Nc1ccc(S(=O)(=O)N(CC(C)C)C[C@@H](O)[C@H](Cc2ccccc2)NC(=O)OCc2cccnc2)cc1` [Compound 44, N-(4-(((2 syn,3S)-2-Hydroxy-4-phenyl-3-(pyridin-3-yl-methoxycarbonylamino)-butyl)-isobutyl-sulfamoyl)-phenyl)-acetamide], with 0.101 to 1 µM; and `CC(=O)Nc1nc(C)c(S(=O)(=O)N(Cc2ccccc2)C[C@@H](O)[C@H](Cc2ccccc2)NC(=O)[C@H](CC(N)=O)NC(=O)c2ccc3ccccc3n2)s1` [Compound 5], with 0.101 to 1 µM; and `O=C(N[C@@H](Cc1ccccc1)[C@H](O)CN(CC1CCCC1)S(=O)(=O)c1ccc(F)cc1)O[C@H]1CCOC1` [Compound 182, N-Cyclopentylmethyl-4-fluoro-N-((2 syn,3S)-2-hydroxy-4-phenyl-3-((S)-tetrahydrofuran-3-yloxycarbonylamino)-butyl)-benzenesulfonamide], with 0.101 to 1 µM. Take `C=C(C)CN(C[C@@H](O)[C@H](Cc1ccccc1)NC(=O)O[C@H]1CCOC1)S(=O)(=O)c1ccc(F)cc1` [Compound 135]: the IC90 under setting [1] lay within 1 to 10 µM. On to `CC(C)CN(C[C@@H](O)[C@H](Cc1ccccc1)NC(=O)O[C@H]1CCOC1)S(=O)(=O)c1ccc(-c2ccccn2)s1` [Compound 51], for which, under setting [1], the IC90 lay within 1 to 10 µM. Take `C=CCOC(=O)N[C@@H](Cc1ccccc1)[C@H](O)CN(CC1CCCC1)S(=O)(=O)c1ccc2c(c1)CCN2C(C)=O` [Compound 156]: the IC90 under setting [1] is 0.101 to 1 µM.

Take `CC(=O)Nc1ccc(S(=O)(=O)N(CC2CCCC2)C[C@@H](O)[C@H](Cc2ccccc2)NC(=O)O[C@H]2CCOC2)cc1` [Compound 125, N-(4-(Cyclopentylmethyl-((2 syn,3S)-2-hydroxy-4-phenyl-3-((S)-tetrahydrofuran-3-yloxycarbonylamino)-butyl)-sulfamoyl)-phenyl)-acetamide]: under setting [1], the concentration for an effect of 90% (IC90) was 0.101 to 1 µM. As for `O=C(N[C@@H](Cc1ccccc1)[C@H](O)CN(CC1CCCC1)S(=O)(=O)c1ccc(Cl)cc1)O[C@H]1CCOC1` [Compound 116, 4-Chloro-N-cyclopentylmethyl-N-((2 syn,3S)-2-hydroxy-4-phenyl-3-((S)-tetrahydrofuran-3-yloxycarbonylamino)-butyl)-benzenesulfonamide], the concentration for an effect of 90% (IC90) under setting [1] is less than 0.1 µM. Take `COc1ccc(S(=O)(=O)N(CC2CCCC2)C[C@@H](O)[C@H](Cc2ccccc2)NC(=O)OCc2cccnc2)cc1` [Compound 142]: the concentration for an effect of 90% (IC90) under setting [1] is less than 0.1 µM. In the case of `O=C(N[C@@H](Cc1ccccc1)[C@H](O)CN(CC1CCCC1)S(=O)(=O)c1ccc(Cl)cc1)OCc1cccnc1` [Compound 118], under setting [1], the IC90 fell in the range of 0.101 to 1 µM. Regarding `COc1ccc(S(=O)(=O)N(CC(C)C)C[C@@H](O)[C@H](Cc2ccccc2)NC(=O)OCc2ccncc2)cc1` [Compound 163, N-((2 syn,3S)-2-Hydroxy-4-phenyl-3-(pyridin-4-yl-methoxycarbonylamino)-butyl)-N-isobutyl-4-methoxy-benzenesulfonamide], the IC90 under setting [1] fell in the range of 0.101 to 1 µM.

In the case of `CC(=O)Nc1ccc(S(=O)(=O)N(CC(C)C)C[C@@H](O)[C@H](Cc2ccccc2)NC(=O)OC(C)(C)C)cc1` [Compound 39], the IC90 under setting [1] lay in the range of 1 to 10 µM. For the molecule `COC(=O)N[C@@H](Cc1ccccc1)[C@H](O)CN(CC(C)C)S(=O)(=O)c1ccc(Cl)c(Cl)c1` [Compound 103], the IC90 under setting [1] was in the range of 1 to 10 µM. For `O=C(N[C@@H](Cc1ccccc1)[C@H](O)CN(CC1CCCC1)S(=O)(=O)c1ccc([N+](=O)[O-])cc1)O[C@H]1CCOC1` [Compound 170, N-Cyclopentylmethyl-N-((2 syn,3S)-2-hydroxy-4-phenyl-3-((S)-tetrahydrofuran-3-yloxycarbonylamino)-butyl)-4-nitro-benezensulfonamide], the concentration for an effect of 90% (IC90) under setting [1] lay in the range of 0.101 to 1 µM.
